Measurements as given in US9486462B2, “Formulations of aminoglycosides and fosfomycin in a combination having improved chemical properties” (CARDEAS PHARMA CORPORATION, priority 2013, dated 2016).

Experiments:
[1] = commercially available; cited from earlier work
[2] = pH of amikacin starting materials; type: physicochemical; details: amikacin base, before neutralization
[3] = cited from earlier work
Staphylococcus aureus [4] = assay: Predicted lung concentration relative to MIC90, Staphylococcus aureus; type: in vivo
Method: (§1) In clinical use, concentration of the aminoglycoside and fosfomycin are delivered to yield a concentration in the lungs that is MIC90 for the target organism. For amikacin, about […] of amikacin chloride and about […] of fosfomycin disodium are delivered to the lung (50 mg amikacin chloride and 20 mg fosfomycin in solution) using a nebulizer with an expected 15% delivery efficiency.

Staphylococcus aureus [5] = details: cited from earlier work
pseudomonas = details: approximately 20 mg delivered to the lung, co-infected patients; cited from earlier work
[6] = in vivo
Method: as §1

[7] = test system: highly resistant Gram-negative organisms; assay: Predicted lung concentration relative to MIC90, Gram-negative organisms; type: in vivo; details: most highly resistant Gram-negative organisms
Method: as §1

In the case of NCC[C@H](O)C(=O)N[C@@H]1C[C@H](N)[C@@H](O[C@H]2O[C@H](CN)[C@@H](O)[C@H](O)[C@H]2O)[C@H](O)[C@H]1O[C@H]1O[C@H](CO)[C@@H](O)[C@H](N)[C@H]1O.O=S(=O)(O)O.O=S(=O)(O)O [amikacin sulfate], the “starting pH” value [1] is listed as 3.5-5.5.

In the case of NCC[C@H](O)C(=O)N[C@@H]1C[C@H](N)[C@@H](O[C@H]2O[C@H](CN)[C@@H](O)[C@H](O)[C@H]2O)[C@H](O)[C@H]1O[C@H]1O[C@H](CO)[C@@H](O)[C@H](N)[C@H]1O [amikacin], the pH [2] is reported as “approximately 11”.

For NCC[C@H](O)C(=O)N[C@@H]1C[C@H](N)[C@@H](O[C@H]2O[C@H](CN)CC[C@H]2N)[C@H](O)[C@H]1O[C@H]1O[C@H](CO)[C@@H](O)[C@H](N)[C@H]1O [arbekacin], the pKa [3] is given as 10.2.

In the case of C[C@@H]1O[C@@H]1P(=O)(O)O [fosfomycin], the “predicted peak concentration, times the MIC90” value (Staphylococcus aureus [4]) is given as “greater than 25 times”, the bacterial density (Staphylococcus aureus [5]; approximately 20 mg delivered to the lung, co-infected patients) is given as “Decreased bacterial density” and the killing of staphylococcus (Staphylococcus aureus [5]; estimated 40 mg delivered dose versus estimated 20 mg dose) is given as “more efficacious”. For the same compound, the bacterial density (pseudomonas) was “Decreased bacterial density” and the “predicted concentration delivered to the lungs” value [6] was “about 5400 ug/mL”.

In the case of amikacin chloride, the “predicted lung concentration, times the MIC90” value [7] is reported as “greater than 25 times” and the “predicted concentration delivered to the lungs” value [6] is reported as “about 13,500 ug/mL”.

For gentamycin, the pKa [3] is listed as 8.2.
